Measured values published in a melting point compilation (Tetko et al.).

SMILES | melting point
NNC(=S)Nc1cc(S(=O)(=O)N2CCOCC2)ccc1Cl | 181 to 183 °C
COC(=O)Nc1ccccc1O | 120 to 122 °C
O=C(O)CC(O)(c1ccccc1)C(F)(F)F (configuration not stated) | 133 to 135 °C
O=C(O)c1ccc(CS)cc1 | 179 to 181 °C
CCOC(=O)c1noc(-c2cccc(F)c2-n2ccnc2)n1 | 128 to 130 °C
O=C(O)CCc1ccc(S(=O)(=O)N2CCOCC2)cc1 | 160 to 162 °C
C=Cc1nc(-c2cccc(Cl)c2)no1 | 51 to 53 °C
O=c1ccc2ccc(Cl)c(Cl)c2[nH]1 | 241 to 243 °C
CCN(CC)CC(=O)Nc1ccc(C(F)(F)F)cc1N | 94 to 96 °C
O=C(O)Cc1coc(-c2ccc(F)cc2)n1 | 166 to 168 °C
N#CCc1nc(-c2c(F)cccc2F)cs1 | 75 to 77 °C
O=C(O)c1cc([N+](=O)[O-])c2nsnc2c1 | 199 to 201 °C
O=C(O)c1csc(-c2ccc3c(c2)OCO3)n1 | 222 to 224 °C
Cc1csc(NC(=O)CCl)n1 | 127 to 129 °C
Cc1ccc(S(=O)(=O)N(C)C)cc1C(=O)O | 173 to 175 °C
Oc1ncc(F)cc1I | 119 to 121 °C
Cc1noc(C)c1S(=O)(=O)NCCC(=O)O | 105 to 118 °C
NC(=O)c1ccccc1OCc1cccc(C(=O)O)c1 | 238 to 240 °C
CC(C)(C)OC(=O)N1CCC(CCC(=O)O)CC1 | 99 to 101 °C
CCc1nc(C(=O)O)nn1-c1ccccc1 | 145 to 147 °C
CC(C)c1nc(C(=O)O)nn1-c1ccccc1F | 159 to 161 °C
CN(C(=O)CC#N)c1ccccc1 | 86 to 88 °C
O=C(O)Cn1cc(C2CC2)nn1 | 183 to 185 °C
COc1ccc(C(=O)CCCC(=O)O)cc1 | 138 to 140 °C
O=C(O)CCc1nc(-c2cc(Br)cs2)no1 | 129 to 131 °C
Cc1cc(C(=O)CCl)c(C)n1-c1cccc(C(F)(F)F)c1 | 96 to 98 °C

SMILES | melting point
Cc1ccc(OCCCC(=O)O)cc1 | 83 to 85 °C
CNC(=O)c1cc2ccccc2[nH]1 | 221 to 223 °C
N#Cc1ccc(Br)cc1[N+](=O)[O-] | 91 to 93 °C
O=C(O)CCCn1cc(Br)cn1 | 94 to 96 °C
CC(C)C(=O)Nc1cc2ccccc2cc1C(=O)O | 203 to 205 °C
CS(=O)(=O)c1ccc(-c2nc(CCl)co2)cc1 | 129 to 131 °C
Nc1ccc2c(c1)NC(=O)CC2 | 210 to 212 °C
CC1CCCCC1NC(=O)CCl (configuration not stated) | 100 to 102 °C
COc1ccccc1NC(=O)Nc1cc(N)ccc1OC | 167 to 169 °C
CC(C)OC(=S)Nc1ccc(C#N)c(Cl)c1 | 156 to 158 °C
Nc1cc(F)cc(N2CCOCC2)c1 | 91 to 93 °C
CCOC1CCN(C(=O)Nc2cccc(C(=O)O)c2)CC1 | 179 to 181 °C
Nc1nc2ccc(Br)cc2s1 | 119 to 121 °C
O=C(O)c1csc(-c2cccc(C(F)(F)F)c2)n1 | 200 to 202 °C
Nc1ccccc1-n1cnnn1 | 84 to 86 °C
O=C(CO)c1ccc(Cl)cc1 | 124 to 126 °C
NCC(O)c1ccc(OC(F)F)cc1 (configuration not stated) | 54 to 56 °C
CCOC(=O)c1c(C)oc2ccc(O)cc12 | 136 to 138 °C
O=C(CC1CCCCC1)Nc1cccc2c1NCCC2 | 179 to 181 °C
O=C(O)C1(OCc2ccccc2)CCOCC1 | 69 to 71 °C
COc1cccc(C(=O)NN)c1O | 144 to 146 °C
CC(C)(C)n1[nH]c(=O)cc1N | 223 to 225 °C
Cc1ccc(C)c(NC(=O)CCl)c1 | 161 to 163 °C
NC(=NO)c1ccc(-n2cnc3ccccc32)nc1 | 214 to 216 °C
O=C(O)CSCc1coc(-c2ccccc2)n1 | 124 to 126 °C
NC(C(=O)O)(c1cccc(C(F)(F)F)c1)C(F)(F)F (configuration not stated) | 119 to 121 °C

SMILES | melting point
Nc1cn[nH]c(=O)c1Cl | 299 to 301 °C
OC1CCc2ccc(F)cc21 (configuration not stated) | 41 to 43 °C
O=S(=O)(Cl)c1ccc(S(F)(F)(F)(F)F)cc1 | 82 to 84 °C
Cc1cccc(C(N)=O)c1N | 145 to 147 °C
O=C(O)C1CC(=O)N(C2CCCC2)C1 (configuration not stated) | 136 to 138 °C
O=C(O)c1cc(Cl)ccc1-n1cnnn1 | 198 to 200 °C
CC(C(=O)O)c1cccc(Cl)c1 (configuration not stated) | 75 to 77 °C
Cc1sc(=O)[nH]c1C(C)C | 129 to 131 °C
O=C(O)Cn1c(=O)oc2cc([N+](=O)[O-])ccc21 | 214 to 216 °C
Sc1nnc(-c2ccc3ccccc3c2)o1 | 226 to 228 °C
O=C(O)CC=Cc1ccccc1F | 54 to 56 °C
NS(=O)(=O)c1scnc1C(=O)O | 205 to 207 °C
CCN(Cc1ccccc1)c1ccc(C(=O)O)cc1 | 183 to 185 °C
O=C(O)c1c(C2CC2)nc2sccn12 | 163 to 165 °C
N#Cc1c(F)cccc1S(=O)(=O)Cl | 63 to 65 °C
Nc1cc(F)c(I)c(F)c1 | 113 to 115 °C
CC(C)NS(=O)(=O)c1ccc(/C=C/C(=O)O)cc1 | 223 to 225 °C
Cc1nnc(-c2ccc(C(=O)O)cc2)[nH]1 | 272 to 274 °C
Nc1ccnn1Cc1c(Cl)cccc1Cl | 127 to 129 °C
O=C(O)CSCc1nc2sc3c(c2c(=O)[nH]1)CCC3 | 198 to 200 °C
O=C1COc2cc(Br)c(Cl)cc2N1 | 281 to 283 °C
Cc1n[nH]c(C2CNCCO2)n1 (configuration not stated) | 104 to 106 °C
O=C(O)C1CC(=O)N(CCOc2ccccc2Cl)C1 (configuration not stated) | 138 to 140 °C
Cn1ccnc1CC(=O)c1ccccc1 | 96 to 98 °C

Second part, the compound after the results:

melting point | SMILES
163 to 165 °C | CN(C)S(=O)(=O)c1ccc(F)c(C(=O)O)c1
99 to 101 °C | CC(C)(C(N)=S)c1ccccc1
159 to 161 °C | CC(=O)Oc1ccc(C(=O)O)cc1OC(C)=O
123 to 125 °C | CC(C)(C)OC(=O)N1CCC2(CC1)CC2C(=O)O (configuration not stated)
48 to 50 °C | O=S(=O)(Cl)c1ccc(Cl)nc1
118 to 120 °C | Nc1cccc(C(=O)NCC(F)(F)F)c1
149 to 151 °C | COc1ccc(-n2nc(C(=O)O)cc2C)cc1
189 to 191 °C | Nc1cc(F)c(Br)cc1C(=O)O
128 to 130 °C | OCc1ccc(-n2ccnc2)nc1
204 to 206 °C | NC(=O)C1CCC(O)CC1 (configuration not stated)
108 to 110 °C | Nc1ccnc(Oc2ccccc2Br)c1
188 to 190 °C | Cc1cc(C)cc(C(=O)N2CCCC(C(=O)O)C2)c1 (configuration not stated)
117 to 119 °C | Cc1ccc(S(=O)(=O)N(C)C(C)C)cc1N
99 to 101 °C | CCCS(=O)(=O)Nc1cccc(N)c1C
165 to 167 °C | O=C(O)c1nc(NCc2ccccc2)ncc1Cl
76 to 78 °C | CCCC1CCC(=O)NC1=O (configuration not stated)
86 to 88 °C | O=C(O)c1cccc(OCC2CCCO2)c1 (configuration not stated)
49 to 51 °C | O=C(O)CCn1ccc2ccccc21
337 to 339 °C | Cc1cc(F)c2nc(O)cc(C(=O)O)c2c1
110 to 112 °C | Cc1noc2ncc(S(=O)(=O)Cl)cc12
139 to 141 °C | NC(=O)CCc1ccc(C(=O)CCl)cc1
147 to 149 °C | O=C(O)C1CCCN1C(=O)Cc1ccccc1 (configuration not stated)

melting point | SMILES
130 to 132 °C | Nc1ccc(NC(=O)c2ccccc2)cc1C(F)(F)F
114 to 116 °C | Cc1cc(O)nc(-c2ccccn2)n1
187 to 189 °C | O=C(O)c1cc(Cl)nc2ccccc12
211 to 213 °C | N#Cc1cc(Cl)ccc1Oc1cccc(C(=O)O)c1
167 to 169 °C | COc1cc(Cl)c(C)cc1NC(=O)CCl
168 to 170 °C | O=C(O)c1ccc(Oc2ccc(Cl)cc2Cl)cc1
34 to 38 °C | COc1ccc(C=O)cc1OC(F)F
211 to 213 °C | CS(=O)(=O)N1CCN(C(=O)c2ccc(O)cc2)CC1
60 to 62 °C | NC1CCN(c2ccc(C(F)(F)F)cc2)C1 (configuration not stated)
184 to 186 °C | Nn1c(S)nnc1-c1ccccc1F
188 to 192 °C | NN1C(=O)NC(c2ccccc2)(c2ccccc2)C1=O
134 to 136 °C | CCC(C)n1ncc2c(C(=O)O)cc(C3CC3)nc21 (configuration not stated)
54 to 56 °C | O=C1C=CC(=O)N1C1CC1
34 to 36 °C | CC(C)(C)OC(=O)N1CCN(CCN)CC1
185 to 187 °C | Cn1cccc(C(=O)O)c1=O
266 to 268 °C | O=C1Nc2cc(F)c(Br)cc2C1=O
136 to 138 °C | CC(C)(C)C(=O)N1CCCC1C(=O)O (configuration not stated)
176 to 178 °C | Cc1cc(C)n2ncc(C(=O)O)c2n1
74 to 76 °C | Cc1ccc(C#N)c(N2CCCC2)n1
167 to 169 °C | Cc1cc(Oc2ccccc2)c2cc([N+](=O)[O-])ccc2n1
215 to 217 °C | Nc1ccc2c(c1)NC(=O)CO2
186 to 188 °C | N#Cc1cnc(N)cn1

melting point | SMILES
221 to 223 °C | COc1ccc([N+](=O)[O-])cc1NS(=O)(=O)c1ccc(Cl)c(C(=O)O)c1
149 to 151 °C | Cc1cccc(-c2nc(C(=O)O)c(C)[nH]2)c1
166 to 168 °C | N#CCc1cccc(C(=O)O)c1
148 to 150 °C | COc1cccc(-c2cc(N)n(CCO)n2)c1
169 to 171 °C | Cc1cc(C(=O)O)cc([N+](=O)[O-])c1
152 to 154 °C | O=C(O)c1ccccc1SCC(=O)N1CCc2ccccc21
129 to 131 °C | CS(=O)(=O)Nc1ccc(N)c(Cl)c1
125 to 127 °C | O=C(O)c1cccc(C(=O)N2CCCC2)n1
169 to 171 °C | Nc1sc2c(c1C(=O)O)CCSC2
159 to 161 °C | Nc1ccc(Cl)c(C(=O)NC2CCCCC2)c1
114 to 116 °C | CS(=O)(=O)Nc1ccc(N)cc1
64 to 66 °C | COc1ccc(C(C)=O)cc1CSc1nnnn1C
199 to 201 °C | Cn1c(-c2ccccc2)cnc1SCC(=O)O
233 to 235 °C | O=C(O)C1=Cc2cccc(O)c2OC1
163 to 165 °C | Cc1cc(C)cc(C(=O)/C=C2\NC(=O)CS2)c1
142 to 144 °C | NC(=O)CCn1ccc(N)n1
145 to 147 °C | Nc1ccc(-c2ccccc2)nn1
133 to 135 °C | Cc1ccc(F)c(NC(=S)NN)c1
167 to 169 °C | Cc1cc(N2CC(C(=O)O)CC2=O)ccc1Br (configuration not stated)
95 to 97 °C | COc1cc2ncn(CCC(=O)O)c(=O)c2cc1OC
281 to 283 °C | Nc1ccc(-c2cc3ccccc3o2)cc1
199 to 201 °C | O=S(=O)(Nc1cc(F)cc(F)c1)c1ccc(Cl)nc1
